Experimental data from article PMC9303975 (Proceedings of the National Academy of Sciences of the …, 2022).
Bridges are numbered along the chain shown (N, C = ends). Where no end group is shown, it is not given here.

Legend:
[1] = test system: human anti-PLA2R antibody (MN anti-PLA2R IgG) binding to PLA2R-NC3; experiment: SPR inhibition assay: peptides block anti-PLA2R IgG binding to immobilized PLA2R-NC3; details: SPR (ProteOn), 1 µM peptide, anti-PLA2R IgG 1/100 in Hepes buffer pH 7.2, maximal response, n = 3
Method: Real-time binding analysis was evaluated using an SPR instrument (ProteOn, BIO-RAD). ProteOn GLC sensor lanes were preactivated by injection of 18.75 mg/mL EDC (1-ethyl-3-(3-dimethylaminopropyl) carbodiimide) and 1.4 mg/mL NHS (N-hydroxysuccinimide, Sigma-Aldrich). Once activated, 20 μg/mL PLA2R-NC3 in 10 mM sodium acetate buffer (pH 4.5) (BIO-RAD) was injected onto sensor chip lanes for immobilization. Ethanolamine was injected to deactivate the sensors from further immobilization.
Subsequently, all AIPs were tested in triplicate using the same concentration. […] Hepes buffer was subsequently flown over, and the dissociation phase was measured for 400 s. The sensors were then regenerated with two successive injections (40 s) of 10 mM NaOH (sodium hydroxide). Each measured response of anti-PLA2R IgG with or without peptides to immobilized PLA2R-NC3 protein was calibrated against nonspecific binding of the sensor to Hepes buffer and Hepes buffer containing antibodies with or without peptides to a blank immobilized sensor. The maximal response was measured for all conditions of anti-PLA2R IgG and percentage inhibition of PLA2R autoantibody binding to PLA2R by AIPs calculated.

[2] = test system: PLA2R autoantibody (27 MN anti-PLA2R positive sera); experiment: BLI direct interaction assay: immobilized peptides with anti-PLA2R positive sera; assay type: binding, human; details: BLI (Octet Red); 27 MN sera at 1/200; dissociation rate from Hill-1 plot; n = 3
Method: BLI experiments were conducted using an Octet Red (ForteBio). Octet CDL sensors (coated with a thin layer of carboxymethyl dextran) were activated by EDC/NHS, at the same concentration used for SPR, for 300 s with 1000 rpm agitation. […] Following immobilization, sensors were deactivated in 1 M ethanolamine for 300 s to prevent further immobilization of proteins to the samples sensors.
The association phase was measured for 450 s with 1000 rpm agitation. The dissociation phase for each sensor was subsequently measured by incubating the sensors into Hepes-sera buffer for 1200 s at 1000 rpm. Regeneration of the sensor was achieved by six successive washes in 10 mM NaOH for 15 s followed by 15 s in Milli-Q water. The immobilized sensor responses to anti-PLA2R IgG were calibrated against nonspecific binding of each immobilized sensor to Hepes-sera buffer.
The dissociation phase of each response was collected and plotted, and the dissociation rate was calculated (kd) as the 1/k value produced from a Hill-1 plot analysis. The average dissociation rate was calculated for each peptide sensor binding to the 27 MN patients’ sera. Dissociation rates with an R^2 value <0.9 or χ^2 value >3 were excluded from the data due to poor fitting.

[3] = test system: PLA2R autoantibody from one MN patient serum; experiment: Peptide microarray binding detection (PEPperCHIP); details: MN patient serum at 1:100, goat anti-human IgG DyLight 680
From the text: To probe the importance of the amino acids within the PLA2R epitope in human autoantibody recognition, we utilized a printed peptide microarray. This peptide laser printing technology allows the synthesis of peptides (between 15 and 20 amino acids in length) directly onto glass slides followed by single substitution scans, which involves the stepwise substitution of all amino acid positions of a given epitope with all 20 main amino acids (Fig. 1A). We first synthesized a stepped series of truncated peptides across the originally discovered 31mer epitope (at both N- and C-terminus end) in order to identify the minimum sequence retaining high-affinity binding. […] We have previously shown that the epitope peptide is a disulphide-bonded structure, and its reactivity to human anti-PLA2R is sensitive to reduction ([8]). […] The substitution scan of these two regions was performed by exchange of the native amino acids with all 20 main amino acids. […] To further investigate this, a second array (platform 3) combined both parts of the N-terminal region and the cyclic C-terminal region. […]
Peptide microarrays were generated and performed by PEPperPRINT (Heidelberg, Germany) ([31], [32]). […] Peptide spot intensity quantification and peptide annotation were executed with PepSlide Analyzer. […]

[4] = test system: PLA2R autoantibody; experiment: Autoantibody binding to Endo180 protein (western blot and dot blot, Fig. S2); design: species or system human; details: western blot non reduced and reduced; dot blot under native condition
Method: To determine the contribution of the conformation of the epitope sequence, the binding of the autoantibody was tested against Endo180 protein, another member of the mannose receptor family with high structural homology of the PLA2R CysR domain (SI Appendix, Fig. S2).
Fig. S2: PLA2R autoantibodies incapable of binding to Endo180 potentially due to lack of surface cavity in the P28mer epitope region.
A) Sequences from the P28mer region in the mannose receptor family proteins were subjected to consensus mapping by weblogo. Residues conserved in all mannose receptor proteins are indicated with *. B) Western blot analysis of PLA2R and Endo180 under non reduced and reduced conditions using anti-His and human PLA2R autoantibody. C) Dot blot analysis of PLA2R and […]
PLA2R autoantibody under native condition. D) Comparison of the PLA2R, DEC -205 (5ao5) and Endo-180 (7jpt) structures and their overlays. The RSMD values generated were 3.184 Å RMSD for analysis between PLA2R and Endo180, 3.558 Å RMSD for DEC-205 and Endo180, where Endo180 was used as reference.
(1 picture or pasted object on this page, not shown here)

Row | Molecule | binding affinity of immobilized peptide to anti-PLA2R positive sera, relative to P28mer [2] | autoantibody binding to printed peptide (fluorescence intensity) [3] | also measured
1 | VIQSESLK [AIP1] | lower affinity than the P28mer |  | percentage inhibition of PLA2R autoantibody binding to PLA2R [1]: ~40%
2 | KGIFVIQSESLKKC [platform 1, microarray-printed linear region […] of P28mer] |  | no significant binding | 
3 | CIQAGKSVLTLENCK (disulfide 1-14 (inferred)) [platform 2, microarray-printed cyclic region […] of P28mer, cyclized by disulphide] |  | no significant binding | 
4 | SVLTLENCK [AIP2] | lower affinity than the P28mer |  | 
5 | Endo180: mannose receptor family protein with high structural homology to the PLA2R CysR domain (protein, UniProt Q9UBG0 31-1479, looked up) C-type mannose receptor 2: GAPGDAALPEPNVFLIFSHGLQGCLEAQGGQVRVTPACNTSLPAQRWKWVSRNRLFNLGTMQCLGTGWPGTNTTASLGMYECDREALNLRWHCRTLGDQLSLLLGARTSNISKPGTLERGDQTRSGQWRIYGSEEDLCALPYHEVYTIQGNSHGKPCTIPFKYDNQWFHGCTSTGREDGHLWCATTQDYGKDERWGFCPIKSNDCETFWDKDQLTDSCYQFNFQSTLSWREAWASCEQQGADLLSITEIHEQTYINGLLTGYSSTLWIGLNDLDTSGGWQWSDNSPLKYLNWESDQPDNPSEENCGVIRTESSGGWQNRDCSIALPYVCKKKPNATAEPTPPDRWANVKVECEPSWQPFQGHCYRLQAEKRSWQESKKACLRGGGDLVSIHSMAELEFITKQIKQEVEELWIGLNDLKLQMNFEWSDGSLVSFTHWHPFEPNNFRDSLEDCVTIWGPEGRWNDSPCNQSLPSICKKAGQLSQGAAEEDHGCRKGWTWHSPSCYWLGEDQVTYSEARRLCTDHGSQLVTITNRFEQAFVSSLIYNWEGEYFWTALQDLNSTGSFFWLSGDEVMYTHWNRDQPGYSRGGCVALATGSAMGLWEVKNCTSFRARYICRQSLGTPVTPELPGPDPTPSLTGSCPQGWASDTKLRYCYKVFSSERLQDKKSWVQAQGACQELGAQLLSLASYEEEHFVANMLNKIFGESEPEIHEQHWFWIGLNRRDPRGGQSWRWSDGVGFSYHNFDRSRHDDDDIRGCAVLDLASLQWVAMQCDTQLDWICKIPRGTDVREPDDSPQGRREWLRFQEAEYKFFEHHSTWAQAQRICTWFQAELTSVHSQAELDFLSHNLQKFSRAQEQHWWIGLHTSESDGRFRWTDGSIINFISWAPGKPRPVGKDKKCVYMTASREDWGDQRCLTALPYICKRSNVTKETQPPDLPTTALGGCPSDWIQFLNKCFQVQGQEPQSRVKWSEAQFSCEQQEAQLVTITNPLEQAFITASLPNVTFDLWIGLHASQRDFQWVEQEPLMYANWAPGEPSGPSPAPSGNKPTSCAVVLHSPSAHFTGRWDDRSCTEETHGFICQKGTDPSLSPSPAALPPAPGTELSYLNGTFRLLQKPLRWHDALLLCESRNASLAYVPDPYTQAFLTQAARGLRTPLWIGLAGEEGSRRYSWVSEEPLNYVGWQDGEPQQPGGCTYVDVDGAWRTTSCDTKLQGAVCGVSSGPPPPRRISYHGSCPQGLADSAWIPFREHCYSFHMELLLGHKEARQRCQRAGGAVLSILDEMENVFVWEHLQSYEGQSRGAWLGMNFNPKGGTLVWQDNTAVNYSNWGPPGLGPSMLSHNSCYWIQSNSGLWRPGACTNITMGVVCKLPRAEQSSFSPSALPENPAALVVVLMAVLLLLALLTAALILYRRRQSIERGAFEGARYSRSSSSPTEATEKNILVSDMEMNEQQE |  |  | interaction of the autoantibody with the protein [4]: No interaction was detected
